The record followed here is PubChem BioAssay (NCI).

Assay in all cases: inhibition of tumour cell growth, NCI panel, 48 h
Assay [1] concerns SK-MEL-28 melanoma.
The subject of assay [2] is SK-MEL-2 melanoma.
The test system of assay [3] is RXF 393 renal.
In assay [4] the test system is SW-620 colon.
Assay [5] relates to SF-295 CNS.
For assay [6], the system named is PC-3 prostate.
For assay [7], the system named is OVCAR-4 ovarian.
Assay [8] relates to SN12C renal.
For assay [9], the system named is SF-539 CNS.
In assay [10] the test system is NCI-H522 lung.

Values joined by “and” are separate entries in the source; they are usually repeats but may differ in a detail not shown here. Equal values may be shown once.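 Method: 48-hour compound exposure of cells in 96-well plates, five concentrations, linear interpolation of endpoints. Here, GI50 denotes the concentration required for 50% inhibition of growth. At the TGI there is no net growth.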

For `N#C/C(=C\c1ccc2ccccc2c1)C(=O)c1ccccc1`, the TGI in assay [1] is above 100 µM; in [2], above 100 µM; in assay [3] it was above 55.4 µM; in assay [4] it was above 81.4 µM; in assay [5] it was above 100 µM; in assay [6], above 100 µM. Also, the TGI in assay [7] is above 100 µM; in assay [8], above 87.2 µM; in assay [9], above 100 µM; in assay [10], above 100 µM.

As to `NS(=O)(=O)c1ccc(N=Nc2c(O)c(C(=O)O)cc3ccccc23)cc1`, the TGI in assay [1], in [2], in assay [3], in assay [4], in assay [5] and in [6] was above 100 µM in each case. Further, the TGI in assay [7], in assay [8], in [9] and in assay [10] was above 100 µM each time.

Turning to `NC(N)=N/N=C/c1c(Cl)cccc1Cl`, the GI50 in assay [1] was 17.6 µM; in assay [2], 18.5 µM; in assay [3] it was 15.5 µM; in [4], 15.8 µM; in [5] it was 12.4 µM; in [6], 31 µM. In addition, the GI50 in assay [7] is 25.3 µM; in assay [8] it was 36.6 µM; in assay [9], 23.7 µM; in [10] it was 25.8 µM. The TGI was 34.6 µM in assay [1]; 36.1 µM in assay [2]; 35.8 µM in assay [3]; 30.6 µM in assay [4]; 30.2 µM in assay [5]; above 100 µM in assay [6]. The TGI in [7] was above 100 µM; in [8], above 100 µM; in [9], above 100 µM; in [10] it was 77.2 µM.

Turning to `CCn1c(O)c(/C=N/NC(=O)C(C)c2ccc(CC(C)C)cc2)sc1=S` (stereo not drawn), the GI50 is 1 µM in [1]; 3.19 µM in [2]; 0.222 µM in assay [3]; 0.394 µM in assay [4]; 0.337 µM in [5]; 0.415 µM in assay [6]. The GI50 is 1.08 µM in assay [7], 0.619 µM in assay [8], 0.214 µM in assay [9] and 0.277 µM in assay [10]. Also, the TGI in [1] is above 45.8 µM; in assay [2], above 49.8 µM; in assay [3] it was 0.654 µM; in assay [4], above 40.9 µM; in [5] it was above 34.7 µM; in assay [6], above 41.4 µM. Further, the TGI is above 52 µM in assay [7], above 40.3 µM in assay [8], 0.609 µM in [9] and 5.58 µM in [10].

Consider `NC1CCN(Cc2ccccc2)CC1`, for which the GI50 in assay [2] was above 100 µM; in [3] it was 8.22 µM; in assay [4], above 100 µM; in assay [5] it was above 100 µM; in assay [6] it was above 100 µM; in assay [7], above 100 µM. For the same molecule, the GI50 in [8] is above 100 µM; in assay [9], 2.27 µM; in assay [10] it was above 100 µM. The TGI in assay [2], in [3], in assay [4], in [5], in assay [6] and in [7] was above 100 µM throughout. Besides, the TGI in assay [8] is above 100 µM; in assay [9], 6.21 µM; in [10] it was above 100 µM.

With `C/C(N=NC(=S)N1CC2CCC(CC2)C1)=C1\C=CC=CN1O`, the TGI in assay [1] is above 100 µM; in assay [2], above 100 µM; in assay [3] it was 69.3 µM; in [4], above 100 µM; in assay [5] it was above 71.5 µM; in [6], 45.4 µM. The TGI is above 100 µM in assay [7], above 100 µM in assay [8], 31 µM in [9] and 80.3 µM in assay [10].

As to `CCCC(=O)Nc1cn(COC)c(C(=O)N2C[C@@H]3C[C@]34C2=CC(=O)c2[nH]cc(C)c24)n1`, the TGI in [1] is 50 µM and 32.2 µM; in assay [2] it was 27.3 µM and 9.29 µM; in [3], 16.5 µM and 4.67 µM; in [4], 50 µM and 47.7 µM; in assay [5] it was 50 µM and 15.8 µM; in [6], 24.1 µM and 19 µM. Also, the TGI in assay [7] was 18.2 µM and 14.3 µM; in assay [8] it was 30.9 µM and 22.9 µM; in assay [9] it was 50 µM and 15.8 µM; in assay [10], 13.5 µM and 4 µM. Besides, the GI50 in assay [2] was 2.98 µM; in assay [3], 2.21 µM; in assay [5], 3.68 µM; in assay [6], 5.65 µM; in assay [7] it was 4.66 µM; in assay [9], 4.27 µM.

Turning to `NC(N)=NCCCC(=O)O`, the TGI in [1], in assay [2], in [3], in assay [4], in [5] and in [6] was above 100 µM each time. Moreover, the TGI in assay [7], in assay [8], in [9] and in assay [10] was above 100 µM each time.

Turning to `NNC(=O)CNc1cccc(Br)c1`, the TGI in assay [1], in [2], in [3], in assay [4], in [5] and in [6] was above 100 µM each time. For the same molecule, the TGI in assay [7], in assay [8], in [9] and in assay [10] was above 100 µM each time.

Consider `C=CCC1(c2ccc(OC)cc2)C=CC(=O)CC1` (stereo not drawn), for which the TGI in [1], in assay [3], in [4], in assay [5], in [6] and in assay [7] was above 100 µM throughout. Besides, the TGI in [8], in [9] and in assay [10] was above 100 µM each time.
